Experimental data: article PMC12013085, “Peptides targeting RAB11A–FIP2 complex inhibit HPIV3, RSV, and IAV replication as broad-spectrum antivirals” (Cell & Bioscience, 2025)
Where a SMILES comes first, the peptide text is derived from it.

Assays:
[1] = system: RAB11A–FIP2 complex; test: In vitro co-IP of mixed 293T lysates (FIP2, N protein, RAB11A)
Protocol: 293 T cells were individually transfected with plasmids encoding FIP2, the N protein, and RAB11A for 36 h, after which their lysates were mixed for in vitro co-IP analysis. […] All experiments were independently replicated at least twice with consistent results. Statistical significance (*p < 0.05) was determined by two-sided unpaired t-test. Data are presented as means ± SEM
293T cells were transfected with the indicated plasmids for 36 h, and cell lysates were prepared using lysis buffer as described in the Western blot (WB) analysis section. The supernatants were collected and incubated with anti-Flag or anti-Myc magnetic beads (MCE) following the manufacturer’s instructions for co-IP. The immunoprecipitated proteins were then analyzed via WB.

[2] = In vivo biodistribution of Cy5-YT-DRI, IVIS imaging; details: BALB/c mice, i.p. administration
Protocol: Female BALB/c mice, aged 6–8 weeks, were randomly divided into two groups. One group received an intraperitoneal injection of PBS (n = 3) for background fluorescence measurement, while the other group received 5 mg/kg Cy5-YT-DRI (n = 3). Bioluminescence readings were performed at various time points using the IVIS Lumina K Series III. Following imaging, mice were euthanized, and the indicated tissues were collected for further evaluation of fluorescence values. The average radiance is expressed as the sum of photons per second from each pixel inside the region of interest per the number of pixels (p s^−1 cm^−2 sr^−1).
Supplementary file 13578_2025_1384_MOESM7_ESM.tif: Supplementary Material 7. Fig. S7. In Vivo biodistribution of Cy5-YT-DRI. (A) Mice were treated with PBS or Cy5-YT-DRI (5mg/kg) via intraperitoneal injection. Bioluminescence readings were conducted at different time points using the IVIS Lumina K Series III for ventral (the upper row) and dorsal (the lower row) views, and the average radiance is expressed as the sum of the photons per second from each pixel inside the region of interest per the number of pixels (p s−1 cm−2 sr−1). (B-F) Representative images of the brains(B), lungs (C), livers (D), kidneys (E), and hearts (F) from the PBS-treated or Cy5-YT-DRI-treated mice. (G) Normalized bioluminescence results are expressed as means ± SEM from at least two experiments. […]

[3] = system: HPIV3 clinical strain VR93; format: in vivo, nude BALB/c mice
[4] = system: HPIV3HA-P vRNP; test: vRNP distribution by immunofluorescence in HPIV3HA-P-infected HeLa cells; format: cell-based; details: HPIV3HA-P MOI = 0.01, 5 μM peptide, 24 h
Protocol: (§1) Data are presented as means ± SEM
HeLa cells were cultured on coverslips in 24-well plates overnight and subjected to transfection or/and virus infection as indicated. Following this, cells were fixed with 4% paraformaldehyde for 20 min at room temperature (RT) and permeabilized with 0.2% Triton X-100 for 20 min at RT. Subsequently, cells were blocked with 3% bovine serum albumin (BSA) in PBS for 30 min at RT. The cells were then incubated with primary antibodies diluted in 1% BSA, followed by incubation with secondary antibodies, also diluted in 1% BSA. Nuclei were counterstained with DAPI, and plasma membrane were stained with Dil. Confocal microscopy images were acquired using a Leica confocal microscope.

[5] = system: EV71; format: cell-based, Enterovirus 71; details: HeLa cells, EV71 MOI = 0.1, escalating concentrations, 24 hpi, TCID50
[6] = system: HPIV3 VLPs in 293T cells; test: HPIV3 VLP budding and plasma membrane fraction assay, WB; format: cell-based; details: 293T cells, compared to Tat-treated control
Protocol: as §1
The cell lysates were prepared as described for the Western blot (WB) analysis. The supernatant was harvested and clarified by centrifugation at 12,000×g for 5 min. Subsequently, the supernatant was pelleted through a 20% sucrose cushion at 4 °C at 35,000 rpm for 2 h. The VLP pellets obtained were resuspended in PBS and boiled with SDS-PAGE loading buffer at 100 °C for 10 min. Both the cell lysates and the supernatants were then subjected to WB analysis.
293T cells, cultured in 6-cm dishes, were transfected with the indicated plasmids for 24 h. Cell collection was performed through centrifugation at 500×g for 5 min at 4 °C. Subsequently, cytosol, organelle membrane, and plasma membrane-associated proteins were extracted sequentially using the MinuteTM plasma membrane protein isolation and cell fractionation kit (INVENT), following the manufacturer's instructions.

[7] = system: RSV; format: in vivo, nude BALB/c mice
[8] = In vivo drug toxicity study; details: male ICR mice, 5 or 10 mg/kg i.p. for consecutive 3 days
Protocol: The 6–8 weeks old male ICR male mice, were randomly assigned into three groups and each group had 5 mice. The mice were i.p. injected with 5 mg/kg YT-DRI, 10 mg/kg YT-DRI, or the same volume of PBS for consecutive 3 days. During the experiment, body weight was recorded for 15 days. At the end of the experiment, the mice were perfused, and tissue samples of heart, liver, lung, and kidney were collected for histopathological examination.
Supplementary file 13578_2025_1384_MOESM8_ESM.tif: Supplementary Material 8. Fig. S8. In vivo safety of YT-DRI. (A) Body weight changes of the 6-week-old ICR mice treated with PBS or 5 mg/kg or 10 mg/kg of YT-DRI at the indicated time points. (B) Hematoxylin and eosin staining of various tissues under an optical microscope for histopathological morphology analysis at 14 days after i.p. administration. Scale bar, 200 μm.

[9] = system: HPIV3
[10] = system: IAV; format: cell-based, influenza A virus; details: IAV MOI 0.01, 5 μM, 24 hpi, TCID50
[11] = system: HeLa, A549, MK2, MDCK and HEp-2 cells; details: CCK-8, 24 h treatment, in the tested cell lines (HeLa, A549, MK2, MDCK, HEp-2)
[12] = system: WSN virus; format: in vivo, BALB/c mice
[13] = system: RSV
[14] = system: HPIV3, RSV, and IAV; format: cell-based

CC[C@@H](C)[C@@H](NC(=O)[C@@H](CC(=O)O)NC(=O)[C@@H](CC(N)=O)NC(=O)[C@@H](CC(C)C)NC(=O)[C@@H](CC(C)C)NC(=O)[C@H](NC(=O)[C@@H](CCCNC(=N)N)NC(=O)[C@H](NC(=O)[C@@H](CCSC)NC(=O)[C@@H](CCC(=O)O)NC(=O)[C@@H](CCC(=O)O)NC(=O)[C@H](NC(=O)[C@@H](CCCNC(=N)N)NC(=O)[C@@H](CCCCN)NC(=O)[C@@H](CCCCN)NC(=O)[C@@H](CCCNC(=N)N)NC(=O)[C@@H](CCCNC(=N)N)NC(=O)[C@@H](CCC(N)=O)NC(=O)[C@@H](CCCNC(=N)N)NC(=O)[C@@H](CCCNC(=N)N)NC(=O)[C@H](N)CCCNC(=N)N)[C@H](C)O)C(C)C)C(C)C)C(=O)N[C@H](Cc1ccc(O)cc1)C(=O)O [YT-DRI] (HELM PEPTIDE1{[dR].[dR].[dR].[dQ].[dR].[dR].[dK].[dK].[dR].[dT].[dE].[dE].[dM].[dV].[dR].[dV].[dL].[dL].[dN].[dD].[dI].[dY]}$$$$V2.0; N-terminus and C-terminus assumed)
N-RAB11A interaction [1]: undetectable
interaction between FIP2 and RAB11A ([1]; in contrast to control peptide Tat): significantly attenuated
transport across the blood–brain barrier [2]: facilitated transport across the blood–brain barrier
body weight loss, HPIV3-infected mice ([3]; 2 mg/kg i.p. once daily Day 0 to Day 2, vs PBS, n = 5): less weight loss
lung histology, HPIV3 ([3]; 2 mg/kg i.p., 3 dpi, H&E, vs PBS): reduced lung inflammation
viral RNA copies in the lung, HPIV3 ([3]; 2 mg/kg i.p., 3 dpi, RT-qPCR): significantly decreased
infectious titers in the lung, HPIV3 ([3]; 2 mg/kg i.p., 3 dpi, TCID50): significantly decreased
vRNP localization [4]: formation of large aggregates of vRNP in the cytoplasm
EV71 replication, treated compared to untreated cells [5]: no significant differences
levels of N, P, and M proteins in the PM fraction and VLPs [6]: reduced levels
body weight loss, RSV-infected mice ([7]; 2 mg/kg i.p. once daily Day 0 to Day 3, vs PBS, n = 5): reduced body weight loss
lung histology, RSV ([7]; 2 mg/kg i.p., 4 dpi, H&E): diminished lung tissue damage
viral RNA copies in the lung, RSV ([7]; 2 mg/kg i.p., 4 dpi, RT-qPCR): lower viral RNA copies
infectious titers in the lung, RSV ([7]; 2 mg/kg i.p., 4 dpi, TCID50): decreased infectious titers
acute toxicity: body weight ([8]; body weight recorded for 15 days, 5 mice per group): no significant changes
acute toxicity: histopathological morphology ([8]; heart, liver, lung, kidney, H&E): no significant changes
HPIV3 viral growth in WT HeLa cells [9]: significant reduction in viral growth
effect on HPIV3 in RAB11A-KO HeLa cells [9]: moderate and statistically insignificant
IC50 ([9]; 36 h): 0.94 µM
SI (CC50/IC50), HPIV3, A549 ([9]; 36 h): > 263.16
SI (CC50/IC50), HPIV3, HeLa ([9]; 36 h): > 159.57
SI (CC50/IC50), HPIV3, MDCK ([9]; 36 h): > 102.74
antiviral effect on IAV infection in RAB11A-KO HeLa cells [10]: no significant antiviral effect
CC50 [11]: > 150 µM
body weight loss, IAV (WSN)-infected mice ([12]; 2 mg/kg i.p. once daily Day 0 to Day 4): reduced body weight loss
survival rate, lethal IAV (WSN) infection ([12]; 2 mg/kg i.p. once daily Day 0 to Day 4, observed until 14 dpi, n = 5): 80%
viral RNA copies in the lungs, IAV (WSN) ([12]; 2 mg/kg i.p., 4 dpi, RT-qPCR, vs PBS): decreased viral RNA copies
lung histology, IAV (WSN) ([12]; 2 mg/kg i.p., 4 dpi, vs PBS): milder lung inflammation
SI (CC50/IC50), RSV, A549 ([13]; 2 h): > 405.41
SI (CC50/IC50), RSV, HEp-2 ([13]; 2 h): > 681.82
SI (CC50/IC50), RSV, HeLa ([13]; 2 h): > 220.59
SI (CC50/IC50), RSV, MDCK ([13]; 2 h): > 326.09
antiviral effect on RSV infection in RAB11A-KO HeLa cells ([13]; RSV MOI 0.1, 5 μM, 24 hpi, TCID50): no significant antiviral effect
replication of HPIV3, RSV, and IAV in coinfection (viral RNA accumulation) [14]: markedly impeded the replication
